{
  "source": "the supplement of paper PMC10307832",
  "assay_in_all_cases": "relative viability (nuclei count vs DMSO), 5 days (fraction); higher = more cells survive",
  "key": {"[1]": {"compound": "CN(C)C(=N)NC(=N)N [Metformin] + C[C@]1(O)C[C@@H](c2nc(-c3ccc4ccc(-c5ccccc5)nc4c3)c3c(N)nccn32)C1 [Linsitinib] (partner 1 µM)", "summary_of_the_method": "(§1)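 Lung cancer cell lines were seeded in 1536-well plates and dosed by pin tool the next day, with either a single drug or a fixed anchor-drug dose combined with five library-drug doses (not always all listed) spaced in √10 steps. Five days later, one step fixed the cells and stained their nuclei (final 0.05% Triton X-100, 1% formaldehyde, 1 ug/ml Hoechst), and nuclei were counted on 4× images. Relative viability is the nuclei count in treated wells divided by the count in vehicle wells, and each value is the median of duplicate plates.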"}, "[2]": {"compound": "N#CC1(c2ccc(NC(=O)c3cccnc3NCc3ccncc3)cc2)CCCC1 [Apatinib] + CCNC(=O)c1noc(-c2cc(C(C)C)c(O)cc2O)c1-c1ccc(CN2CCOCC2)cc1 [Luminespib] (partner 0.01 µM)", "summary_of_the_method": "as §1"}, "[3]": {"compound": "N#CC1(c2ccc(NC(=O)c3cccnc3NCc3ccncc3)cc2)CCCC1 [Apatinib] + COc1cc2c(Oc3ccc(NC(=O)C4(C(=O)Nc5ccc(F)cc5)CC4)cc3F)ccnc2cc1OCCCN1CCOCC1 [Foretinib] (partner 0.25 µM)", "summary_of_the_method": "as §1"}, "[4]": {"compound": "N#CC1(c2ccc(NC(=O)c3cccnc3NCc3ccncc3)cc2)CCCC1 [Apatinib] + CC(=O)c1c(C)c2cnc(Nc3ccc(N4CCNCC4)cn3)nc2n(C2CCCC2)c1=O [Palbociclib] (partner 0.5 µM)", "summary_of_the_method": "as §1"}},
  "data": [
    {"cell line": "NCI-H460", "values": [
      {"measurement": "relative viability", "setting": "[1]; first compound 31.62 µM", "result": 0.772},
      {"measurement": "relative viability", "setting": "[1]; first compound 100 µM", "result": 0.774},
      {"measurement": "relative viability", "setting": "[1]; first compound 316.23 µM", "result": 0.662},
      {"measurement": "relative viability", "setting": "[1]; first compound 1000 µM", "result": 0.843},
      {"measurement": "relative viability", "setting": "[2]; first compound 0.08 µM", "result": 0.0389},
      {"measurement": "relative viability", "setting": "[2]; first compound 0.253 µM", "result": 0.0355},
      {"measurement": "relative viability", "setting": "[2]; first compound 0.8 µM", "result": 0.0311},
      {"measurement": "relative viability", "setting": "[2]; first compound 2.53 µM", "result": 0.0328},
      {"measurement": "relative viability", "setting": "[2]; first compound 8 µM", "result": 0.0337},
      {"measurement": "relative viability", "setting": "[3]; first compound 0.08 µM", "result": 0.941},
      {"measurement": "relative viability", "setting": "[3]; first compound 0.253 µM", "result": 0.943},
      {"measurement": "relative viability", "setting": "[3]; first compound 0.8 µM", "result": 0.942},
      {"measurement": "relative viability", "setting": "[3]; first compound 2.53 µM", "result": 1.04},
      {"measurement": "relative viability", "setting": "[3]; first compound 8 µM", "result": 0.897},
      {"measurement": "relative viability", "setting": "[4]; first compound 0.08 µM", "result": 0.188},
      {"measurement": "relative viability", "setting": "[4]; first compound 0.253 µM", "result": 0.191},
      {"measurement": "relative viability", "setting": "[4]; first compound 0.8 µM", "result": 0.103},
      {"measurement": "relative viability", "setting": "[4]; first compound 2.53 µM", "result": 0.182},
      {"measurement": "relative viability", "setting": "[4]; first compound 8 µM", "result": 0.137}
    ]}
  ]
}
